Test results published in patent US20240058268A1, “METHODS OF TREATING SKIN DISORDERS” (priority 2021, published 2024).

Assays:
[1] = test system: acne papule biopsies of subjects with moderate inflammatory acne of the back; test: Large scale gene expression profiling of skin biopsies (Affymetrix U133 Plus 2.0); type: in vivo, human
Protocol: Subjects with moderate inflammatory acne of the back were treated with a 0.005% trifarotene or vehicle cream on dedicated back areas for 27 days, and 4 biopsies were collected on each subject (non-involved skin, acne papule, Trifarotene and vehicle treated site). Large scale gene expression profiling of the biopsies was performed using Affymetrix technology, and treatment specific gene expression profiles were generated using statistical modeling. Clinical investigations were conducted in accordance with the Declaration of Helsinki principles, and the ICH Guideline for Good Clinical Practice. The clinical study received approval from the ethics committee of Brest, France (reference CPP Quest 6-755). This was a post-hoc analysis of data collected from 9 patients aged 18-35 with acne vulgaris (EUDRACT No. 2012-001943-36). In the 4-week open-label clinical study, subjects received once-daily applications of trifarotene 0.005% cream and vehicle cream on the back. Each patient had four biopsies performed, 1 from skin without visible acne lesion (non-involved skin) and three at the site of acne papule, with the following timing: one prior to treatment (day 0), one after vehicle treatment (day 27), and one after trifarotene treatment (day 27). Aubert et al, Br J Dermatol., 2018 August; 179(2):442-456. Samples were collected for large-scale gene expression profiling. Subjects provided written informed consent prior to biopsies. Subjects with moderate inflammatory acne on the back at the screening visit, defined by scores of between 2 and 4 for the whole back, with at least one area scored at 2 and a maximum of three nodules using the ECLA (Acne Lesion Score Scale) scale, were included in the study. Each subject had at least 2 papules 48 hours old, one on each half of the back. Subjects were excluded if they had active skin disease or inflammation other than acne, underlying known conditions which could interfere with study results, history of allergy to local anesthetics and/or topical antiseptics, history of bleeding disorder, or pregnancy/lactation (females). Predefined washout periods were mandated for acne treatments, immunosuppressants, immunomodulators, systemic corticosteroids, and isotretinoin. Study personnel applied treatment to patients' backs with trifarotene cream (right side) or vehicle (left side) once daily for 28 days excluding weekends (n=19 applications). Biopsies of nonlesional areas of trifarotene- and vehicle-treated skin were made under local anaesthesia at day 27 as shown in FIG. 1. Biopsies were stored in RNAlater TissueProtect Tubes (Qiagen, Les Ulis, France). Bioinformatics Analysis: Data analysis was performed using Array Studio software (Omicsoft Corporation, Cary, NC, USA). Affymetrix U133 Plus 2.0 chips (GeneChipTM, Santa Clara, CA, USA) were normalized using the multi-array average (RMA) method (See […], et al. Exploration, normalization, and summaries of high density oligonucleotide array probe level data. Biostatistics, 2003; 4:249-64.) Low expression probe-sets were filtered. Only Affymetrix identifiers with expression ≥2^6 in at least 5 samples in one condition were selected for further statistical analysis, resulting in data for 36245 out of the 54675 probe-sets present on the HG U133 Plus 2.0 array. Mean expression levels were obtained by calculating the geometric means of the RMA-normalized data. A linear model was fitted to the normalized data, and statistical testing of the comparisons of interest were performed using a moderated t-test. Paired-test was used when applicable. P values were adjusted for multiple testing using the Benjamini-Hochberg false discovery rate (FDR) method (See e.g., Benjamini Y, et al., Controlling the false discovery rate in behavior genetics research. Behav Brain Res, 2001; 125:279-84). Candidate differentially expressed genes were selected using a combination of fold-change and […]; genes with absolute fold change>2 and FDA<0.05 were considered as candidate differentially expressed genes. […]

[2] = test system: acne papule biopsies, gene sets; test: Gene set enrichment analysis (FGSEA, hallmark and reactome gene sets); type: in vivo, human; details: inflammatory response, TNFA signaling via NF-kB, neutrophil degranulation, chemokines and receptors; collagen degradation, extracellular matrix degradation/organization
Protocol: Functional and network analysis were generated with the Ingenuity Pathway Analysis software (QIAGEN® Inc., qiagenbioinformatics.com/products/ingenuity-pathway-analysis), and with Open Targets (opentargets.org/). IPA was used to identify canonical pathways, diseases and functions, and gene networks related to differentially expressed genes in acne lesions and post-lesional skin after treatment with trifarotene or vehicle. In addition, gene set enrichment analysis was performed with the R package FGSEA (version 1.12.0) using the hallmark and reactome gene sets.

[3] = lesional skin after 0.005% cream (day 27) vs before treatment

## CC(C)(C)c1cc(-c2cc(-c3ccc(C(=O)O)cc3)ccc2OCCO)ccc1N1CCCC1 [Trifarotene, 3″-tert-Butyl-4′-(2-hydroxy-ethoxy)-4″-pyrrolidin-1-yl-[1,1′,3′,1″ ]terphenyl-4-carboxylic acid]
[1]; LINC01224, INA, GABRA4, PXMP4
  number of genes upregulated among the 67 genes regulated: four
[1]; absolute fold change>2, genes of inflammatory cell infiltration and extracellular matrix reorganization
  number of genes uniquely downregulated (not in spontaneously resolving signature): 67 genes
[1]; acne signature vs trifarotene signature
  number of genes in common between acne lesion profile and trifarotene-treated lesion profile, all reversed: 354 genes
[1]; [3]
  Fold Change R3 vs L1: ADAM12 (226777_at): −3.84
  Fold Change R3 vs L1: ADAMDEC1 (206134_at): −6.29
  Fold Change R3 vs L1: APELA (1559280_a_at): −2.70
  Fold Change R3 vs L1: ARHGAP9 (224451_x_at): −2.14
  Fold Change R3 vs L1: BCAT1 (214452_at): −3.66
  Fold Change R3 vs L1: BIRC3 (210538_s_at): −2.23
  Fold Change R3 vs L1: CBLN2 (242301_at): −2.61
  Fold Change R3 vs L1: CCDC71L (229521_at): −2.26
  Fold Change R3 vs L1: CCNA1 (205899_at): −3.55
  Fold Change R3 vs L1: CD37 (204192_at): −2.13
  Fold Change R3 vs L1: CD69 (209795_at): −2.10
  Fold Change R3 vs L1: CD80 (1554519_at): −4.03
  Fold Change R3 vs L1: CD84 (230391_at): −2.57
  Fold Change R3 vs L1: CLEC4A (221724_s_at): −2.32
  Fold Change R3 vs L1: CTLA4 (236341_at): −2.54
  Fold Change R3 vs L1: CYTH4 (219183_s_at): −2.36
  Fold Change R3 vs L1: DMXL2 (215761_at): −2.35
  Fold Change R3 vs L1: EVI2B (211742_s_at): −2.35
  Fold Change R3 vs L1: FERMT3 (223303_at): −2.12
  Fold Change R3 vs L1: FNDC3B (229865_at): −2.35
  Fold Change R3 vs L1: GABRA4 (208463_at): 2.26
  Fold Change R3 vs L1: GASK1B (219872_at): −2.30
  Fold Change R3 vs L1: GLIPR1 (204222_s_at): −2.48
  Fold Change R3 vs L1: GLIPR2 (225604_s_at): −2.24
  Fold Change R3 vs L1: GLIS3 (229435_at): −3.07
  Fold Change R3 vs L1: GPRIN3 (1556698_a_at): −2.27
  Fold Change R3 vs L1: HLA-DPA1 (213537_at): −2.14
  Fold Change R3 vs L1: HP (206697_s_at): −2.99
  Fold Change R3 vs L1: IL2RG (204116_at): −2.28
  Fold Change R3 vs L1: IL18BP (222868_s_at): −2.37
  Fold Change R3 vs L1: INA (204465_s_at): 2.34
  Fold Change R3 vs L1: IRF8 (204057_at): −2.02
  Fold Change R3 vs L1: ITGAX (210184_at): −2.85
  Fold Change R3 vs L1: KLHL6 (1555275_a_at): −3.05
  Fold Change R3 vs L1: LINC01224 (233142_at): 3.51
  Fold Change R3 vs L1: LOXL2 (202998_s_at): −2.18
  Fold Change R3 vs L1: LPXN (216250_s_at): −2.25
  Fold Change R3 vs L1: LY86 (205859_at): −2.18
  Fold Change R3 vs L1: MMP12 (204580_at): −11.13
  Fold Change R3 vs L1: MMP13 (205959_at): −4.3
  Fold Change R3 vs L1: MMP19 (204575_s_at): −2.71
  Fold Change R3 vs L1: MSR1 (214770_at): −2.45
  Fold Change R3 vs L1: NCEH1 (225847_at): −2.70
  Fold Change R3 vs L1: NRP2 (223510_at): −2.46
  Fold Change R3 vs L1: P2RY8 (229686_at): −2.23
  Fold Change R3 vs L1: P2RY10 (236280_at): −2.05
  Fold Change R3 vs L1: PAPSS2 (203060_s_at): −2.60
  Fold Change R3 vs L1: PARVG (223562_at): −2.23
  Fold Change R3 vs L1: PTHLH (211756_at): −2.55
  Fold Change R3 vs L1: PTPN22 (236539_at): −2.27
  Fold Change R3 vs L1: PTPRO (208121_s_at): −2.26
  Fold Change R3 vs L1: PXMP4 (238746_at): 2.14
  Fold Change R3 vs L1: RAC2 (207419_s_at): −2.03
  Fold Change R3 vs L1: RHOH (204951_at): −2.57
  Fold Change R3 vs L1: SELP (206049_at): −2.10
  Fold Change R3 vs L1: SELPLG (209879_at): −2.06
  Fold Change R3 vs L1: SH2B3 (203320_at): −2.26
  Fold Change R3 vs L1: SIRPB1 (206934_at): −2.45
  Fold Change R3 vs L1: SLAMF7 (219159_s_at): −2.49
  Fold Change R3 vs L1: SLC6A14 (219795_at): −2.04
  Fold Change R3 vs L1: SNAP25 (202508_s_at): −2.40
  Fold Change R3 vs L1: TRG-AS1 (239237_at): −2.33
  Fold Change R3 vs L1: TYROBP (204122_at): −2.39
  Fold Change R3 vs L1: VCAN (215646_s_at): −2.43
  Fold Change R3 vs L1: XCL1 (206366_x_at): −2.02
[2]
  gene set enrichment: inflammatory modules and tissue remodeling gene sets: downregulates
